{"source": "paper PMC10683761", "about": "(ACS Sensors, 2023)", "type_in_all_cases": "cell-based, human", "key": {"[1]": {"test_system": "dMASS^1", "conditions": "10 μM compound, sensor dMASS^1, mean ± SEM, N = 40 cells"}, "[2]": {"test_system": "dLight1.1", "conditions": "10 μM compound, sensor dLight1.1, mean ± SEM, N = 40 cells"}, "[3]": {"test_system": "dMASS^1", "assay": "dMASS^1 response to 1 μM DA in presence of dopamine receptor subtype antagonists"}}}
{"smiles": "NCCc1c[nH]c2ccc(O)cc12", "note": "[5-HT, 5-hydroxytryptamine]", "values": [{"measurement": "response normalized to 10 μM DA stimulation", "setting": "[1]", "value": "3.32 ± 0.20", "unit": "%"}, {"measurement": "response normalized to 10 μM DA stimulation", "setting": "[2]", "value": "6.61 ± 0.69", "unit": "%"}]}
{"smiles": "CC(=O)OCC[N+](C)(C)C", "note": "[ACh, acetylcholine]", "values": [{"measurement": "response normalized to 10 μM DA stimulation", "setting": "[1]", "value": "3.61 ± 0.14", "unit": "%"}, {"measurement": "response normalized to 10 μM DA stimulation", "setting": "[2]", "value": "8.22 ± 0.58", "unit": "%"}]}
{"smiles": "CC(C)NCC(O)c1ccc(O)c(O)c1", "note": "(centres unmarked) [Iso, isoproterenol]", "values": [{"measurement": "response normalized to 10 μM DA stimulation", "setting": "[1]", "value": "3.80 ± 0.21", "unit": "%"}, {"measurement": "response normalized to 10 μM DA stimulation", "setting": "[2]", "value": "8.89 ± 0.83", "unit": "%"}]}
{"smiles": "NC[C@H](O)c1ccc(O)c(O)c1", "note": "[NE, norepinephrine]", "values": [{"measurement": "response normalized to 10 μM DA stimulation", "setting": "[1]", "value": "58.00 ± 3.46", "unit": "%"}, {"measurement": "response normalized to 10 μM DA stimulation", "setting": "[2]", "value": "55.06 ± 4.31", "unit": "%"}]}
{"smiles": "CN1CCc2cc(Cl)c(O)cc2[C@@H](c2ccccc2)C1", "note": "[SCH23390]", "values": [{"measurement": "response normalized to 10 μM DA stimulation", "setting": "[1]", "value": "3.58 ± 0.16", "unit": "%"}, {"measurement": "response normalized to 10 μM DA stimulation", "setting": "[2]", "value": "8.87 ± 0.58", "unit": "%"}]}
{"smiles": "CCN1CCCC1CNC(=O)c1cc(S(N)(=O)=O)ccc1OC", "note": "(centres unmarked) [Sulpiride]", "values": [{"measurement": "effect on DA-dependent response of dMASS^1", "setting": "[3]", "value": "but not dMASS^1"}]}
